Source: patent US20260085283A1, “STEM CELL-DERIVED GASTRULOID MODEL, METHOD FOR CONSTRUCTING SAME, AND USE” (Innovation Center of Suzhou Nanjing Medical University, priority 2022, published 2026)

Tested on: gastruloid model induced from human induced pluripotent stem cells DYR0100
Assay: Thalidomide dosing of the in vitro gastruloid induction model (early embryonic teratogenesis model test)
[1] = day 7, dosed group (5 μM and 10 μM) compared with the control group
[2] = day 7, with the increase of dosed concentration (5 μM, 10 μM), significant statistical difference vs blank control and dimethyl sulfoxide control
[3] = day 7 samples, dosed group (5 μM and 10 μM) compared with the control group

Description: Two gradients of 5 μM and 10 μM were selected, and a blank control group and a dimethyl sulfoxide group (with thalidomide solvent) were added for testing.
When human induced pluripotent stem cells DYR0100 grew to 80-90% confluence, TrypLE Select was used to digest the cells into single cells, and the cells were resuspended in PBS to obtain a cell suspension 1; cell suspension 1 containing 9.0×10^4 cells was taken, 2 mL of the G1ER culture medium containing Y-27632 was added to resuspend the cells, and then 5 μM, 10 μM of 1% % thalidomide, dimethyl sulfoxide solution and a blank control group were added respectively, a total of 4 groups, to obtain a cell suspension 2; the cell suspension 2 was inoculated into a well of an Agreewell 400™ culture dish coated with the anti-adhesion solution (Anti-adhesion rinsing Solution) in advance. After centrifugation at 800 rpm for 2 minutes using a horizontal centrifuge, the cell amount per microwell was 50-75 cells (each well of the Agreewell 400™ culture dish has 1200 microwells, that is, the cell amount in each microwell was 9.0×10^4/1200=75 cells).
On day 2 of the culture, half of the culture medium was replaced with the G1ER culture medium, and 5 μM and 10 μM of 1% % thalidomide, dimethyl sulfoxide solution and a blank control were added respectively. Half of the culture medium was replaced every day until day 3 of the culture.
When the first stage of induction was completed, samples were taken from the four groups, and recorded with white light, then 4% paraformaldehyde was used for fixation for 30 minutes, and relevant immunofluorescence staining was performed for statistical verification.
On day 3 of the culture, 1.75 mL of the first-stage GIER culture medium was discarded, and the second-stage G2EE culture medium was added slowly along the wall, 5 μM and 10 μM of 1% thalidomide, dimethyl sulfoxide solution and a blank control were added respectively, to prevent the formed gastruloids from floating up from the microwells and then fusing.
On day 4 of the culture, 1.75 mL of the second-stage G2EE culture medium was discarded, and the third-stage aG2EE culture medium was added slowly along the wall, and 5 μM and 10 μM of 1% % thalidomide, dimethyl sulfoxide solution and a blank control were added respectively, to prevent the formed gastruloids from floating up from the microwells and then fusing.
On day 5 of the culture, 1.75 mL of the third-stage aG2EE culture medium was discarded, and the fourth-stage bG2EE culture medium was added slowly along the wall, and 5 μM and 10 μM of 1% % thalidomide, dimethyl sulfoxide solution and a blank control were added respectively, to prevent the formed gastruloids from floating up from the microwells and then fusing. After 24 hours, the culture medium was continuously replaced by 1.75 mL (the bG2EE culture medium) and cultured until day 7.
When the four-stage induction was completed, samples were taken from the four groups, and recorded the white light, then 4% paraformaldehyde was used to fix for 30 minutes, and relevant cell nucleus staining was performed for statistical verification.

SMILES: O=C1CCC(N2C(=O)c3ccccc3C2=O)C(=O)N1 (stereo not drawn) [Thalidomide]
- formation of amniotic cavity and yolk sac (DAPI staining) [1]: could not be formed
- internal structure of the gastruloids (DAPI staining of cell nucleus) [1]: relatively disordered
- cell amount of the single gastruloid [2]: decreased
- volume of the single gastruloid [2]: decreased
- internal cavity structure of the gastruloids (white light results) [3]: absent
- volume of the gastruloids (white light results) [3]: reduced volume
